pIC50: −log10 of the molar value. Where two headings read alike, the source gives them in different places. Marks after values point to notes of the source that are not given here.
Assays:
RhlR = molecular target: T1, RhlR (Pseudomonas aeruginosa, UniProt P54292); experiment: cell-based; details: for Relative RhIR Activity (%) Agonism 100 / Relative RhIR Activity (%) Agonism 1000: Table 3; for Relative RhIR Activity (%) Agonism 1000: 1000 (μM); for remaining activity at 10 µM: read-out: Relative RhIR Activity (%) Antagonism 10, Table 3; for activity at 100 µM: read-out: Relative RhlR activity Agonism, Table 2, matches the 100 column of Table 3; for Relative RhlR activity Antagonism: Table 2; for Relative RhIR activity (%) Agonism / Relative RhIR activity (%) Antagonism: Table 4, concentration not given
T1 construct: expressed in transfected cells; host or cells: E. coli sdiA variant co-transformed with pJN105R and pSC11 (RhlA::lacZ)
Experimental: Escherichia coli (E. coli) DH5a includes LuxR homolog SdiA detecting endogenous AHL synthesized by other microbial species, particularly, BHL.
For RhlR reporter strain analysis, the present invention used pJN105R (RhlR expression plasmid), anspSC11 (RhlA::lacZ fusion plasmid) and an sdiA variant co-transformed with the two plasmids. 1% of an overnight-cultured reporter strain (OD 595 nm=1.0) supplemented with 10 μg/mL gentamicin and 50 μg/mL ampicillin was cultured in a Luria-Bertani (LB) medium (Difco, Detroit, Mich., USA) with a positive control or a compound (0-1000 μM) and BHL (0-10 μM) (Sigma-Aldrich) at 37° C. for 2 hours. 0.4% arabinose (Sigma-Aldrich) was reacted with the resulting product at 37° C. for 1.5 hours. β-galactosidase activity was evaluated using a Tropix plus kit (Applied Biosystems, CA, USA), and OD 595 nm and luminescence were measured using a VICTOR x5 multimode plate reader (PerkinElmer, Waltham, Mass., USA). Relative RhlR activity was quantified by measuring luminescence at OD 595 nm. In addition, for LasR reporter strain analysis, the present invention used pJN105L (LasR expression plasmid) and pSC11 (lasI::lacZ fusion plasmid), E. coli DH5a co-transformed with the two plasmids, and OdDHL (Sigma-Aldrich).

Pseudomonas aeruginosa [1] = experiment: Static biofilm formation assay (crystal violet); format: cell-based; details: for activity at 10 µM / activity at 100 µM: Pseudomonas aeruginosa, 24 h, Table 3; for activity at 10 µM: read-out: Relative biological activity (%) Biofilm formation 10; for activity at 100 µM: read-out: Relative biological activity (%) Biofilm formation 100; for Relative biological activity (%) Biofilm formation: Table 4, concentration not given
Experimental: (§1) Pseudomonas aeruginosa (P. aeruginosa) (OD 595 nm=1.0) was cultured overnight, and diluted in an AB medium (1:20; 300 mM NaCl, 50 mM MgSO4, 0.2% vitamin-free casamino acids, 10 mM potassium phosphate, 1 mM L-arginine, and 1% glucose, pH 7.5) together with a positive control or compound (0100 μM) in a borosilicate bottle. The resulting mixture was incubated without shaking at 37° C. for 24 hours, and to measure growth inhibition activity. OD 595 nm of the suspended culture was measured using a multimode plate reader. Biofilm cells attached to the bottle were washed twice with phosphate-buffered saline (PBS; 137 mM NaCl, 2.7 mM KCl, 10 mM Na2HPO4, and 2 mM KH2PO4, pH 7.2). Afterward, the remaining biofilm cells were stained with 0.1% crystal violet for 10 minutes, and to remove the unbound crystal violet, washed with deionized water. The crystal violet […] to the biofilm cells was eluted with 100% ethanol, and the OD of the eluted ethanol sample was measured at 545 nm using a multimode plate reader.

Pseudomonas aeruginosa [2] = experiment: Bacterial growth under static condition (OD 595 nm of suspended culture); format: cell-based; details: for activity at 10 µM / activity at 100 µM: Pseudomonas aeruginosa, 24 h, Table 3; for activity at 10 µM: read-out: Relative biological activity (%) Bacterial growth 10; for activity at 100 µM: read-out: Relative biological activity (%) Bacterial growth 100; for Relative biological activity (%) Bacterial growth: Table 4, concentration not given
Experimental: as §1

P. aeruginosa = experiment: Rhamnolipid production assay; format: cell-based, Pseudomonas aeruginosa; details: for activity at 10 µM / activity at 100 µM: Pseudomonas aeruginosa, 24 h; for activity at 10 µM: read-out: Relative biological activity (%) Rhamnolipid production 10; for activity at 100 µM: read-out: Relative biological activity (%) Rhamnolipid production 100; for Relative biological activity (%) Rhamnolipid production: Table 4, concentration not given
Experimental: P. aeruginosa (OD 595 nm=1.0) cultured overnight was inoculated in an AB medium (1:100) with a positive control or compound (0100 μM), and incubated using a shaking culture for 24 hours at 37° C. The cell culture was centrifuged for 5 minutes at 4° C. and 12,000 g. Rhamnolipids were extracted twice by mixing 200 μL of a supernatant and 400 μL of 100% diethyl ether (JUNSEI, Tokyo, Japan). The supernatant was transferred to a new tube and evaporated. A dried sample was eluted with 20 μL of deionized water, and reacted with 180 μL of an Orcinal solution (0.19% Orcinal (Sigma-Aldrich) in 53% H2SO4). The reaction mixture was heated for 30 minutes at 80° C., and cooled for 15 minutes at room temperature. The amount of rhamnolipids was measured at OD 421 nm, and normalized in the cell culture solution at OD 595 nm using a multimode plate reader.

Pseudomonas aeruginosa [3] = experiment: Dynamic biofilm formation assay (drip-flow reactor, CLSM); format: cell-based; details: 48 hours, 10 μM, smaller volume and thickness than control
Experimental: Glass slides were placed in a drip-flow reactor, and an AB medium containing 5% P. aeruginosa (OD 595 nm=1.0) was added along with a positive control or compound (0 to 10 μM) and the reactor was continuously operated using peristaltic pumps (Masterflex C/L tubing pumps, Cole-Parmer, Ill., USA) at 0.3 ml/min. After the above-described process was carried out at 37° C. for 48 hours, unattached biofilm cells were removed with PBS. The remaining biofilm cells were stained with DAPI (Sigma-Aldrich) for 10 minutes, and observed by confocal laser scanning microscopy (CLSM; Carl Zeiss LSM700, Jena, Germany). The CLSM image of the biofilm cells was obtained with a 20× objective lens (W NAchroplanX20/0.5W (DIC) M27) under blue fluorescence light (excitation wavelength: 350 nm, emission wavelength: 470 nm) using a Z-stack mode of the Zen 2011 program. The volume and thickness of the biofilm were measured using Comstat2 of the ImageJ program based on a CLSM image.

[4] = read-out: Relative RhIR Activity (%) Antagonism 100, Table 3, 100 (μM)
[5] = read-out: Relative RhlR activity Antagonism, Table 2, footnotes not given, 100 μM per Table 3, lower = stronger antagonism
[6] = footnotes not given, 100 μM per Table 3, lower = stronger antagonism

T1 sequence (P54292 whole entry): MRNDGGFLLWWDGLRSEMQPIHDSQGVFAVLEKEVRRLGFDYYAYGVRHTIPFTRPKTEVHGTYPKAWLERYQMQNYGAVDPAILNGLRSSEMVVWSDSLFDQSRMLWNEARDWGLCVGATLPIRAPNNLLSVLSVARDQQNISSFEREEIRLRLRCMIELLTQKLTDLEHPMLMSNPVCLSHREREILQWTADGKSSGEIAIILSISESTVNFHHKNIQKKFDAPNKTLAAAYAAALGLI

CCCCCC(=O)C#Cc1ccc(F)c(F)c1 [Compound 32, 1-(3,4-Difluorophenyl)oct-1-yn-3-one]
Relative RhIR Activity (%) Agonism 100 (RhlR; 100 (μM)): 3** % | Relative RhIR Activity (%) Agonism 1000 (RhlR): 5** % | remaining activity at 10 µM (RhlR): 39% | remaining activity at 100 µM (RhlR; [4]): 17% | activity at 100 µM (RhlR; footnotes not given): 3% | remaining activity at 100 µM (RhlR; [5]): 17% | activity at 10 µM (Pseudomonas aeruginosa [1]; static): 71% | activity at 100 µM (Pseudomonas aeruginosa [1]; static): 56% | biofilm formation compared with a control (in words) (Pseudomonas aeruginosa [1]; static, 100 μM): significantly inhibited | effect on cell growth (in words) (Pseudomonas aeruginosa [2]; 100 PM [sic] (100 μM)): slightly inhibited | activity at 10 µM (Pseudomonas aeruginosa [2]): 100% | activity at 100 µM (Pseudomonas aeruginosa [2]): 88% | activity at 10 µM (P. aeruginosa; Table 3, 10 (μM)): 60% | activity at 100 µM (P. aeruginosa; Table 3, 100 (μM)): 58%

CCCC(=O)NC1CCCC1 [Compound 1d, N-cyclopentylbutyramide, reference compound]
Relative RhlR activity Antagonism (RhlR; [6]): 54** % | Relative RhIR Activity (%) Agonism 100 (RhlR; 100 (μM)): 4** % | Relative RhIR Activity (%) Agonism 1000 (RhlR): 37% | Relative RhIR activity (%) Agonism (RhlR): 4** % | pIC50 (RhlR; dose-response, FIG. 6A, different concentrations (0 to 100 μM)): 4.07 | remaining activity at 10 µM (RhlR): 74% | remaining activity at 100 µM (RhlR; [4]): 54% | activity at 100 µM (RhlR; footnotes not given): 4% | remaining activity at 100 µM (RhlR; [5]): 54% | activity at 10 µM (Pseudomonas aeruginosa [1]; static): 84% | activity at 100 µM (Pseudomonas aeruginosa [1]; static): 69% | Relative biological activity (%) Biofilm formation (Pseudomonas aeruginosa [1]): 81* % | activity at 10 µM (Pseudomonas aeruginosa [2]): 95% | activity at 100 µM (Pseudomonas aeruginosa [2]): 98% | biofilm appearance under flow condition vs control (Pseudomonas aeruginosa [3]): thinner and more dispersed biofilm | activity at 10 µM (P. aeruginosa): 58% | activity at 100 µM (P. aeruginosa): 45% | Relative biological activity (%) Rhamnolipid production (P. aeruginosa): 68* %

CCCCC[C@@H](O)C#Cc1ccc(O)c(OC)c1 [Compound 23b, (R)-4-(3-Hydroxyoct-1-yn-1-yl)-2-methoxyphenol]
Relative RhlR activity Antagonism (RhlR; [6]): 27** % | Relative RhIR activity (%) Agonism (RhlR): 3** % | Relative RhIR activity (%) Antagonism (RhlR): 27** % | activity at 100 µM (RhlR; footnotes not given): 3% | remaining activity at 100 µM (RhlR; [5]): 27% | Relative biological activity (%) Biofilm formation (Pseudomonas aeruginosa [1]): 79* % | Relative biological activity (%) Bacterial growth (Pseudomonas aeruginosa [2]): 100% | Relative biological activity (%) Rhamnolipid production (P. aeruginosa): 77* %

CCCCCC(O)C#Cc1ccc(O)c(OC)c1 (racemic) [Compound 23a, 4-(3-Hydroxyoct-1-yn-1-yl)-2-methoxyphenol]
Relative RhlR activity Antagonism (RhlR; [6]): 32** % | Relative RhIR activity (%) Agonism (RhlR): 3** % | Relative RhIR activity (%) Antagonism (RhlR): 32** % | activity at 100 µM (RhlR; footnotes not given): 3% | remaining activity at 100 µM (RhlR; [5]): 32% | Relative biological activity (%) Biofilm formation (Pseudomonas aeruginosa [1]): 80* % | Relative biological activity (%) Bacterial growth (Pseudomonas aeruginosa [2]): 98% | Relative biological activity (%) Rhamnolipid production (P. aeruginosa): 85%

CCCC(O)CC(=O)/C=C/c1ccc(O)c(O)c1 (stereo not drawn) [Compound 11k, (E)-1-(3,4-Dihydroxyphenyl)-5-hydroxyoct-1-en-3-one]
Relative RhIR Activity (%) Agonism 100 (RhlR; 100 (μM)): 3** % | Relative RhIR Activity (%) Agonism 1000 (RhlR): 5** % | remaining activity at 10 µM (RhlR): 60% | remaining activity at 100 µM (RhlR; [4]): 43% | activity at 100 µM (RhlR; footnotes not given): 3% | remaining activity at 100 µM (RhlR; [5]): 43% | activity at 10 µM (Pseudomonas aeruginosa [1]; static): 84% | activity at 100 µM (Pseudomonas aeruginosa [1]; static): 72% | activity at 10 µM (Pseudomonas aeruginosa [2]): 99% | activity at 100 µM (Pseudomonas aeruginosa [2]): 104% | activity at 10 µM (P. aeruginosa; Table 3, 10 (μM)): 56% | activity at 100 µM (P. aeruginosa; Table 3, 100 (μM)): 50%
